Laboratory results: ChEMBL document CHEMBL5154747, “Discovery of new carbonic anhydrase IX inhibitors as anticancer agents by toning the hydrophobic and hydrophilic rims of the active site to encounter the dual-tail approach” (Eur J Med Chem, 2022)

Columns and labels:
Assay type in all cases: functional
CCRF-CEM = experiment: Anticancer activity against human CCRF-CEM cells assessed as cell growth inhibition incubated for 48 hrs by SRB assay
HL-60(TB) = experiment: Anticancer activity against human HL-60(TB) cells assessed as cell growth inhibition incubated for 48 hrs by SRB assay
K562 = experiment: Anticancer activity against human K562 cells assessed as cell growth inhibition incubated for 48 hrs by SRB assay
RPMI-8226 = experiment: Anticancer activity against human RPMI-8226 cells assessed as cell growth inhibition incubated for 48 hrs by SRB assay
SR = experiment: Anticancer activity against human SR cells assessed as cell growth inhibition incubated for 48 hrs by SRB assay
A549 = experiment: Anticancer activity against human A549 cells assessed as cell growth inhibition incubated for 48 hrs by SRB assay
HOP-62 = experiment: Anticancer activity against human HOP-62 cells assessed as cell growth inhibition incubated for 48 hrs by SRB assay
HOP-92 = experiment: Anticancer activity against human HOP-92 cells assessed as cell growth inhibition incubated for 48 hrs by SRB assay
NCI-H460 = experiment: Anticancer activity against human NCI-H460 cells assessed as cell growth inhibition incubated for 48 hrs by SRB assay
NCI-H522 = experiment: Anticancer activity against human NCI-H522 cells assessed as cell growth inhibition incubated for 48 hrs by SRB assay
COLO 205 = experiment: Anticancer activity against human COLO 205 cells assessed as cell growth inhibition incubated for 48 hrs by SRB assay
HCC 2998 = experiment: Anticancer activity against human HCC 2998 cells assessed as cell growth inhibition incubated for 48 hrs by SRB assay
HCT-116 = experiment: Anticancer activity against human HCT-116 cells assessed as cell growth inhibition incubated for 48 hrs by SRB assay
HCT-15 = experiment: Anticancer activity against human HCT-15 cells assessed as cell growth inhibition incubated for 48 hrs by SRB assay
HT-29 = experiment: Anticancer activity against human HT-29 cells assessed as cell growth inhibition incubated for 48 hrs by SRB assay
SW-620 = experiment: Anticancer activity against human SW-620 cells assessed as cell growth inhibition incubated for 48 hrs by SRB assay
SF-268 = experiment: Anticancer activity against human SF-268 cells assessed as cell growth inhibition incubated for 48 hrs by SRB assay
SF-295 = experiment: Anticancer activity against human SF-295 cells assessed as cell growth inhibition incubated for 48 hrs by SRB assay; settings: read-out: LC50 (the source's name)
SNB-75 = experiment: Anticancer activity against human SNB-75 cells assessed as cell growth inhibition incubated for 48 hrs by SRB assay
U-251 = experiment: Anticancer activity against human U-251 cells assessed as cell growth inhibition incubated for 48 hrs by SRB assay
Malme-3M = experiment: Anticancer activity against human Malme-3M cells assessed as cell growth inhibition incubated for 48 hrs by SRB assay
M14 = experiment: Anticancer activity against human M14 cells assessed as cell growth inhibition incubated for 48 hrs by SRB assay
MDA-MB-435 = experiment: Anticancer activity against human MDA-MB-435 cells assessed as cell growth inhibition incubated for 48 hrs by SRB assay
SK-MEL-2 = experiment: Anticancer activity against human SK-MEL-2 cells assessed as cell growth inhibition incubated for 48 hrs by SRB assay
UACC-62 = experiment: Anticancer activity against human UACC-62 cells assessed as cell growth inhibition incubated for 48 hrs by SRB assay
OVCAR-3 = experiment: Anticancer activity against human OVCAR-3 cells assessed as cell growth inhibition incubated for 48 hrs by SRB assay
OVCAR-4 = experiment: Anticancer activity against human OVCAR-4 cells assessed as cell growth inhibition incubated for 48 hrs by SRB assay
OVCAR-5 = experiment: Anticancer activity against human OVCAR-5 cells assessed as cell growth inhibition incubated for 48 hrs by SRB assay
NCI/ADR-RES = experiment: Anticancer activity against human NCI/ADR-RES cells assessed as cell growth inhibition incubated for 48 hrs by SRB assay
A498 = experiment: Anticancer activity against human A498 cells assessed as cell growth inhibition incubated for 48 hrs by SRB assay
CAKI-1 = experiment: Anticancer activity against human CAKI-1 cells assessed as cell growth inhibition incubated for 48 hrs by SRB assay
RXF 393 = experiment: Anticancer activity against human RXF 393 cells assessed as cell growth inhibition incubated for 48 hrs by SRB assay
UO-31 = experiment: Anticancer activity against human UO-31 cells assessed as cell growth inhibition incubated for 48 hrs by SRB assay
PC-3 = experiment: Anticancer activity against human PC-3 cells assessed as cell growth inhibition incubated for 48 hrs by SRB assay
DU-145 = experiment: Anticancer activity against human DU-145 cells assessed as cell growth inhibition incubated for 48 hrs by SRB assay
MCF7 = experiment: Anticancer activity against human MCF7 cells assessed as cell growth inhibition incubated for 48 hrs by SRB assay
MDA-MB-231 = experiment: Anticancer activity against human MDA-MB-231 cells assessed as cell growth inhibition incubated for 48 hrs by SRB assay
Hs-578T = experiment: Anticancer activity against human Hs-578T cells assessed as cell growth inhibition incubated for 48 hrs by SRB assay
T47D = experiment: Anticancer activity against human T47D cells assessed as cell growth inhibition incubated for 48 hrs by SRB assay
[1] = read-out: LC50 (the source's name)

Work on `Cc1nn(-c2ccccc2)cc1/C=N/Nc1nc(Nc2ccccc2)nc(Nc2ccc(S(N)(=O)=O)cc2)n1` yielded a GI50 (CCRF-CEM) of 2090 nM, a CC50 (CCRF-CEM; [1]) of over 100000 nM and a GI50 (HL-60(TB)) of 2240 nM. It also gave a CC50 (HL-60(TB); [1]) of over 100000 nM, a GI50 (K562) of 2630 nM and a CC50 (K562; [1]) of over 100000 nM. The GI50 (RPMI-8226) was 1660 nM, the LC50 (concentration killing 50% of cells) (RPMI-8226) was over 100000 nM and the GI50 (SR) was 2450 nM. It also gave a CC50 (SR; [1]) of over 100000 nM, a GI50 (A549) of 1850 nM and a GI50 (HOP-62) of 2830 nM. The CC50 (HOP-62; [1]) was over 100000 nM, the GI50 (HOP-92) was 2440 nM and the CC50 (HOP-92; [1]) was over 100000 nM. It also gave a GI50 (NCI-H460) of 2770 nM, a CC50 (NCI-H460; [1]) of over 100000 nM and a GI50 (NCI-H522) of 2660 nM. It also gave a CC50 (NCI-H522; [1]) of over 100000 nM, a GI50 (COLO 205) of 2470 nM and a CC50 (COLO 205; [1]) of over 100000 nM. The GI50 (HCC 2998) was 1880 nM, the CC50 (HCC 2998; [1]) was 7010 nM and the GI50 (HCT-116) was 2000 nM. The LC50 (concentration killing 50% of cells) (HCT-116) was over 100000 nM, the GI50 (HCT-15) was 2670 nM and the CC50 (HCT-15; [1]) was over 100000 nM. For the same compound, the GI50 (HT-29) was 2880 nM, the CC50 (HT-29; [1]) was over 100000 nM and the GI50 (SW-620) was 3380 nM. The CC50 (SW-620; [1]) was over 100000 nM, the GI50 (SF-268) was 2930 nM and the LC50 (concentration killing 50% of cells) (SF-268) was over 100000 nM. The CC50 (SF-295) was over 100000 nM, the GI50 (SNB-75) was 2690 nM and the LC50 (concentration killing 50% of cells) (SNB-75) was over 100000 nM. The GI50 (U-251) was 3650 nM, the CC50 (U-251; [1]) was over 100000 nM and the GI50 (Malme-3M) was 1600 nM. For the same compound, the CC50 (Malme-3M; [1]) was 6130 nM, the GI50 (M14) was 2060 nM and the GI50 (MDA-MB-435) was 1770 nM. The LC50 (MDA-MB-435) was 6780 nM, the GI50 (SK-MEL-2) was 1690 nM and the GI50 (UACC-62) was 1780 nM. For the same compound, the LC50 (UACC-62) was 7190 nM, the GI50 (OVCAR-3) was 3180 nM and the LC50 (concentration killing 50% of cells) (OVCAR-3) was over 100000 nM. For the same compound, the GI50 (OVCAR-4) was 2550 nM, the LC50 (concentration killing 50% of cells) (OVCAR-4) was over 100000 nM and the GI50 (OVCAR-5) was 2060 nM. For the same compound, the CC50 (OVCAR-5; [1]) was over 100000 nM, the GI50 (NCI/ADR-RES) was over 100000 nM and the CC50 (NCI/ADR-RES; [1]) was over 100000 nM. The GI50 (A498) was 1710 nM, the CC50 (A498; [1]) was 6710 nM and the GI50 (CAKI-1) was 2010 nM. It also gave a GI50 (RXF 393) of 1770 nM, a CC50 (RXF 393; [1]) of 6500 nM and a GI50 (UO-31) of 1720 nM. For the same compound, the CC50 (UO-31; [1]) was 7270 nM, the GI50 (PC-3) was 2220 nM and the CC50 (PC-3; [1]) was over 100000 nM. The GI50 (DU-145) was 3060 nM, the LC50 (50% lethal concentration) (DU-145) was over 100000 nM and the GI50 (MCF7) was 1550 nM. The LC50 (MCF7) was 7590 nM, the GI50 (MDA-MB-231) was 3110 nM and the LC50 (concentration killing 50% of cells) (MDA-MB-231) was over 100000 nM. The GI50 (Hs-578T) was 2770 nM, the LC50 (concentration killing 50% of cells) (Hs-578T) was over 100000 nM and the GI50 (T47D) was 2140 nM. The LC50 (T47D) was over 100000 nM.
